Series [1] relates to 786-0. In words: Inhibition of RSL3-induced ferroptosis in human 786-0 cells assessed as cell viability incubated for 24 hrs by CellTiter-LumiTM assay. Type of series: functional, cell-based. The conditions noted are these: 786-0, 24 h.
The subject of series [2] is 786-0. In words: Inhibition of RSL3-induced ferroptosis in human 786-0 cells assessed as cell protection by assessing cell morphology at 1 uM incubated for 24 hrs. Type of series: functional, cell-based.
Series [3] is described as follows: Metabolic stability in human plasma assessed as half life at 1 uM by LC-MS/MS analysis. Type of series: ADME, cell-free.
The next series concerns HT-1080. In words: Anti-ferroptotic activity in human GPX4 knockout HT-1080 cells assessed as cell viability at 1 uM incubated for 24 hrs by CellTiter-LumiTM plus luminescent cell viability assay. The class given is functional, cell-based.
For series [4], the system named is 786-0. Kind of series: Inhibition of RSL3-induced ferroptosis in human 786-0 cells assessed as cell viability by assessing cell morphology incubated for 24 hrs by CellTiter-LumiTM plus luminescent cell viability assay. Type of series: functional, cell-based. The conditions noted are these: 786-0, 24 h.
Series [5] deals with 786-0. In words: Inhibition of RSL3 induced lipid-ROS accumulation in human 786-0 cells incubated for 2.5 hrs by C11-BODIPY 581/591 staining coupled with flow cytometry analysis. Type of series: functional, cell-based. The note with it: dose 0.1-1 µM. (In general: In flow cytometry, cells or beads pass a laser one at a time.)
Series [6] concerns 786-0. In words: Inhibition of RSL3 induced lipid-ROS accumulation in human 786-0 cells assessed as fast elimination at 1 uM measured after 0.25 to 2.5 hrs by C11-BODIPY 581/591 staining coupled with flow cytometry analysis. The note with it: time 0.25-2.5 hrs. The class given is functional, cell-based.
In series [7] the test system is SK-HEP1. In words: Inhibition of RSL3 induced lipid-ROS accumulation in human SK-HEP1 cells at 1 uM incubated for 2.5 hrs by C11-BODIPY 581/591 staining coupled with flow cytometry analysis. Type of series: functional, cell-based.
The test system of series [8] is SK-HEP1. In words: Inhibition of RSL3 induced lipid-ROS accumulation in human SK-HEP1 cells at 1 uM incubated for 0.5 hrs by C11-BODIPY 581/591 staining coupled with flow cytometry analysis. Type of series: functional, cell-based.
Series [9] is described as follows: Antioxidant activity assessed as free radical scavenging activity at 50 uM incubated for 30 mins in dark by DPPH assay relative to control. The class given is functional. (DPPH is a stable violet radical that fades when it is reduced.)
The nature of series [10]: Suppression of autoxidation of liposomes egg ( unknown origin) phosphatidylcholine lipids as substrate at 0.1 to 2.5 uM incubated for 5 min by C11-BODIPY 581/591 dye based fluorescent assay. The class given is functional. The conditions noted are these: dose 0.1-2.5 µM.

Activity calls are given as the source filed them. The rule behind the calls is not given here.

With `COc1cccc(C2N(c3ccccc3)N=C(C(C)=O)N2c2ccc(N(C)C)cc2)c1OCc1cccc(Br)c1` (stereo not given), the EC50 with 786-0 [1] was found to be 0.12 µM. Also, in the series on 786-0 [2], the result was Active.

With `COc1cc(COc2c(OC)cccc2C2N(c3ccccc3)N=C(C(C)=O)N2c2ccc(N(C)C)cc2)ccc1F` (stereo not given), the EC50 in the series with 786-0 [1] came out at 0.17 µM.

Turning to `COc1cccc(C2N(c3ccccc3)N=C(C(C)=O)N2c2ccc(N(C)C)cc2)c1OCc1ccccc1Cl` (stereo not given), in the series on 786-0 [1], the EC50 worked out at 0.15 µM. The outcome in the series on 786-0 [2] was Active.

On to `COc1cccc(C2N(c3ccccc3)N=C(C(C)=O)N2c2ccc(N(C)C)cc2)c1OCc1cccc2ccccc12` (stereo not given), for which the EC50 in the series with 786-0 [1] was 0.19 µM. The result with 786-0 [2] was Active.

For `COc1cccc(C2N(c3ccccc3)N=C(C(C)=O)N2c2ccc(N(C)C)cc2)c1OCc1ccc(F)c(Cl)c1` (stereo not given), the concentration giving a half-maximal response (EC50) in the series with 786-0 [1] was found to be 0.33 µM.

Regarding `COc1cccc(COc2c(OC)cccc2C2N(c3ccccc3)N=C(C(C)=O)N2c2ccc(N(C)C)cc2)c1` (stereo not given), the EC50 in the series on 786-0 [1] was 0.15 µM. Besides, the outcome in the series with 786-0 [2] was Active.

Regarding `CC(=O)C1=NN(c2ccccc2)C(c2cccc(C)c2OCc2ccc(Cl)cc2Cl)N1c1ccc(N(C)C)cc1` (stereo not given), the 50% effective concentration (EC50) in the series on 786-0 [1] came out at 1.23 µM. For the same compound, the result in the series on 786-0 [2] was Active.

Regarding `COc1cc(COc2c(OC)cccc2C2N(c3ccccc3)N=C(C(C)=O)N2c2ccc(N(C)C)cc2)cc(OC)c1OC` (stereo not given), the EC50 with 786-0 [1] was found to be 0.17 µM.

Consider `CC(C)[N+](C)(CCOC(=O)C1c2ccccc2Oc2ccccc21)C(C)C` [PROPANTHELINE], for which the half-life at 1 µM in [3] was found to be 27.9 min.

`COc1cccc(C2N(c3ccccc3)N=C(C(C)=O)N2c2ccc(N(C)C)cc2)c1OCc1cccc(Cl)c1` (stereo not given): the half-maximal effective concentration (EC50) in the series on 786-0 [1] amounted to 0.19 µM. For the same compound, the outcome with 786-0 [2] was Active.

In the case of `COc1cccc(C2N(c3ccccc3)N=C(C(C)=O)N2c2ccc(N(C)C)cc2)c1OCc1c(C)cccc1C` (stereo not given), the EC50 in the series with 786-0 [1] was found to be 0.15 µM. For the same compound, the outcome in the series with 786-0 [2] was Active.

With `COc1cccc(C2N(c3ccccc3)N=C(C(C)=O)N2c2ccc(N(C)C)cc2)c1OCc1ccc(Cl)cc1Cl` (stereo not given), the half-maximal effective concentration (EC50) in the series with 786-0 [1] turned out to be 0.26 µM. Besides, the outcome in the series with 786-0 [2] was Active.

For `COc1cccc(C2N(c3ccccc3)N=C(C(C)=O)N2c2ccc(N(C)C)cc2)c1OCc1ccc(F)cc1` (stereo not given), in the series on 786-0 [1], the 50% effective concentration (EC50) came to 0.14 µM. Besides, in the series on 786-0 [2], the result was Active.

As to `COc1cccc(C2N(c3ccccc3)N=C(C(C)=O)N2c2ccc(N(C)C)cc2)c1OCc1ccc(Cl)cc1` (stereo not given), the 50% effective concentration (EC50) with 786-0 [1] amounted to 0.12 µM. Besides, in the series with 786-0 [2], the result was Active.

On to `COc1cccc(C2N(c3ccccc3)N=C(C(C)=O)N2c2ccc(N(C)C)cc2)c1OCc1ccc(C(F)(F)F)cc1` (stereo not given), for which the concentration for a half-maximal effect (EC50) in the series with 786-0 [1] turned out to be 0.08 µM. Also, in the series on 786-0 [2], the result was Active.

On to `CCOC(=O)c1ccc(NC2CCCCC2)c(N)c1`, for which the result (in the series on HT-1080; in [9]) was Active. In addition, in the series with 786-0 [4], the 50% effective concentration (EC50) is 0.067 µM. For the same compound, the inhibition result with 786-0 [5] is “Dose-dependent-effect”. Also, the inhibition entry in the series with 786-0 [6], with SK-HEP1 [7] and in the series with SK-HEP1 [8] was “Active” each time.

For `COc1cccc(C2N(c3ccccc3)N=C(C(C)=O)N2c2ccc(N(C)C)cc2)c1OCc1ccc(C#N)cc1` (stereo not given), the EC50 in the series with 786-0 [1] turned out to be 0.15 µM. The result in the series on 786-0 [2] was Active.

In the case of `COc1cccc(C2N(c3ccccc3)N=C(C(C)=O)N2c2ccc(N(C)C)cc2)c1OCc1ccc(C(C)(C)C)cc1` (stereo not given), the EC50 with 786-0 [1] came to 0.87 µM.

Turning to `CC(=O)C1=NN(c2ccccc2)C(c2cc(C)c(OCc3ccc(Cl)cc3Cl)c(C)c2)N1c1ccc(N(C)C)cc1` (stereo not given), in the series with 786-0 [1], the EC50 was found to be 0.15 µM.

With `COc1cccc(C2N(c3ccccc3)N=C(C(C)=O)N2c2ccc(N(C)C)cc2)c1OCc1ccc(C)cc1` (stereo not given), the concentration giving a half-maximal response (EC50) in the series on 786-0 [1] was found to be 0.13 µM. Further, in the series with 786-0 [2], the outcome was Active.

Consider `Cc1c(C)c2c(c(C)c1O)CCC(C)(C(=O)O)O2` (stereo not given), for which, in series [9], the result was Active. Moreover, the Activity entry in series [10] was “Dose-dependent-effect”.

On to `COc1cccc(C2N(c3ccccc3)N=C(C(C)=O)N2c2ccc(N(C)C)cc2)c1OCc1c(F)cccc1F` (stereo not given), for which the EC50 with 786-0 [1] was determined as 0.12 µM. The result in the series with 786-0 [2] was Active.

For `COc1cccc(C2N(c3ccccc3)N=C(C(C)=O)N2c2ccc(N(C)C)cc2)c1OCc1ccc(Br)cc1` (stereo not given), the EC50 with 786-0 [1] is 0.1 µM. The result in the series on 786-0 [2] was Active.

For `CC(=O)C1=NN(c2ccccc2)C(c2ccccc2OCc2ccc(Cl)cc2Cl)N1c1ccc(N(C)C)cc1` (stereo not given), the EC50 in the series with 786-0 [1] was 0.39 µM. In addition, in the series with 786-0 [2], the result was Active.

Consider `Clc1cccc(CNC2=Nc3ccccc3NC23CCNCC3)c1`, for which the inhibition result in the series with SK-HEP1 [7] and in the series with SK-HEP1 [8] was “Active” in each case. Further, the result in series [9] was Active.

`COc1cccc(C2N(c3ccccc3)N=C(C(C)=O)N2c2ccc(N(C)C)cc2)c1OCc1c(C)cc(C)cc1C` (stereo not given): the half-maximal effective concentration (EC50) in the series on 786-0 [1] stood at 0.36 µM.

On to `CC(=O)C1=NN(c2ccccc2)C(c2cc(C)ccc2OCc2ccc(Cl)cc2Cl)N1c1ccc(N(C)C)cc1` (stereo not given), for which the EC50 in the series with 786-0 [1] is 0.68 µM. The outcome with 786-0 [2] was Active.

Regarding `COc1cccc(C2N(c3ccccc3)N=C(C(C)=O)N2c2ccc(N(C)C)cc2)c1OCc1ccccc1C#N` (stereo not given), in the series on 786-0 [1], the concentration for a half-maximal effect (EC50) stood at 0.15 µM. For the same compound, the outcome in the series with 786-0 [2] was Active.

Take `COc1cccc(C2N(c3ccccc3)N=C(C(C)=O)N2c2ccc(N(C)C)cc2)c1OCc1cc(Cl)cc(Cl)c1` (stereo not given): the EC50 in the series on 786-0 [1] came to 3.71 µM. In the series with 786-0 [2], the result was Active.

For the compound `CC(=O)C1=NN(c2ccccc2)C(c2ccc(C)cc2OCc2ccc(Cl)cc2Cl)N1c1ccc(N(C)C)cc1` (stereo not given), the EC50 in the series with 786-0 [1] turned out to be 0.71 µM. Besides, the outcome in the series with 786-0 [2] was Active.

On to `COc1ccc(COc2c(OC)cccc2C2N(c3ccccc3)N=C(C(C)=O)N2c2ccc(N(C)C)cc2)cc1OC` (stereo not given), for which the EC50 with 786-0 [1] was 0.3 µM.

As a reminder, the EC50 is the concentration giving half of the maximal effect. By half-life is commonly meant how long it takes for the measured level to halve.

The record behind these values is ChEMBL document CHEMBL6120996, “Discovery and optimization of 1,2,4-triazole derivatives as novel ferroptosis inhibitors” (Eur J Med Chem, 2025).
